From US9889146B2, “Benzoxaborole compounds and uses thereof” (priority 2012, dated 2018)
In brackets after ≈: the same amount, converted by molar mass. Where two headings read alike, the source gives them in different places.

How the values were obtained:
Assay type in all cases: cell-based
[1] = test system: Morganella morganii (AmpC); test: microbe, parasite or virus in culture; conditions: Morganella morganii
Klebsiella spp. (WT) = test: microbe, parasite or virus in culture
Providencia spp.(all) = test: microbe, parasite or virus in culture
[2] = test system: Enterobacter cloacae (AmpC); test: microbe, parasite or virus in culture; conditions: Enterobacter cloacae
[3] = test system: Enterobacter aerogenes (WT); test: microbe, parasite or virus in culture; conditions: for MIC90: Klebsiella aerogenes
E. coli (WT) = test: microbe, parasite or virus in culture; conditions: for MIC90: Escherichia coli
Enterobacteriaceae = test: organism not typed
E. coli (ESBL) = test: microbe, parasite or virus in culture; conditions: Escherichia coli
Klebsiella spp. (KPC) = test: microbe, parasite or virus in culture; conditions: Klebsiella
Proteus mirabilis (WT) = test: microbe, parasite or virus in culture
S. marcescens (AmpC) = test: microbe, parasite or virus in culture; conditions: Serratia marcescens
Proteus vulgaris (WT) = test: microbe, parasite or virus in culture
[4] = test system: Enterobacter aerogenes (AmpC); test: microbe, parasite or virus in culture; conditions: Klebsiella aerogenes
Klebsiella spp. (ESBL) = test: microbe, parasite or virus in culture; conditions: Klebsiella
[5] = test system: Enterobacter cloacae (WT); test: microbe, parasite or virus in culture; conditions: 202 isolates, read-out: MIC90
[6] = test system: Citrobacter freundii (AmpC); test: microbe, parasite or virus in culture; conditions: Citrobacter freundii
P. aeruginosa = test: In vitro activity against P. aeruginosa clinical isolates
Description: GSK2251052 was tested for activity against P. aeruginosa, and its activity was compared to other antibiotics of known activity. The results are shown below in Tables 2a and 2b. Of 2,008 clinical isolates tested (from 2009-2010 subjects, of which 40% were from North America) greater than 90% were susceptible to GSK2251052 based on a potential susceptible breakpoint of ≦4 μg/mL.

E. coli ATCC 25922 = test: Spontaneous frequency of resistance; conditions: 24 h
Description: (§1) Spontaneous Resistance Frequency was determined in vitro for GSK2251052 and the resistance mutants in E. coli ATCC 25922, K. pneumoniae ATCC 13883, and P. aeruginosa ATCC 27853 strains were characterized. GSK2251052 was prepared as described in U.S. Pat. No. 7,816,344 (the entire contents of which are hereby incorporated by reference herein). LB broth, Mueller Hinton II broth (adjusted), and Difco noble agar were obtained from Becton Dickinson (Cockeysville, Md., USA). M9 minimal broth containing 1×M9 salt, 0.5 μg/ML thiamine, 1 mM MgSO4, 0.1 mM CaCl2, 2% glucose, was obtained from Teknova (Hollister, Calif., USA). Antibacterial agents ciprofloxacin, ceftazidime, chloramphenicol, gentamycin, kanamycin, polymixin B, tobramycin and trimethoprim, and amino acids were obtained from Sigma Chemicals (St. Louis, Mo., USA). Strains were obtained from ATCC (Manassas, Va., USA).
(§2) Selection of resistance to GSK2251052 was attempted by spreading various amounts of bacteria onto MHBII noble agar plates containing 4×MIC (minimum inhibitory concentration) or 10×MIC of GSK2251052. Colonies were counted after 24 hours and 48 hours incubation at 37° C. The resistance of these colonies was confirmed by their ability to grow on plates containing GSK2251052 at either 4× or 10×MIC. Frequency of resistance was determined by dividing the number of resistant mutants by the total number of cells plated as determined by plating dilutions of the overnight culture on LB plates.

K. pneumoniae ATCC 13883 = test: Spontaneous frequency of resistance; conditions: 24 h
Description: as §1, §2

P. aeruginosa ATCC 27853 = test: Spontaneous frequency of resistance; conditions: 24 h
Description: as §1, §2

[7] = test system: K. pneumoniae ATCC 13883 wild type and mutants; test: MIC, wild type and GSK2251052 resistant mutants; conditions: Klebsiella pneumoniae
Description: as §1
(§3) Susceptibility tests were performed following the recommendations for aerobic bacteria (M7-A7) from the Clinical and Laboratories Standards Institute (CLSI).
(§4) Laboratory generated mutants resistant to GSK2251052 contain mutations in the editing domain of LeuRS. Six to ten GSK2251052 resistant colonies of E. coli ATCC 25922, K. pneumoniae ATCC 13883 and P. aeruginosa ATCC 27853 were selected for further analysis and their MICs to GSK2251052 were determined (Table 4-7).

[8] = test system: E. coli ATCC 25922 wild type and mutants; test: MIC, wild type and GSK2251052 resistant mutants; conditions: Escherichia coli
Description: as §1, §3, §4

[9] = test system: P. aeruginosa ATCC 27853 wild type and mutants; test: MIC, wild type and GSK2251052 resistant mutants; conditions: Pseudomonas aeruginosa
Description: as §1, §3, §4

[10] = test system: E. coli ATCC 25922, K. pneumoniae ATCC 13883 and P. aeruginosa ATCC 27853; test: MIC, three strains and their mutants summarised; conditions: MIC in E. coli, P. aeruginosa and K. pneumoniae mutants versus wild-type
Description: as §1, §3, §4
GSK2251052 resistant mutants were not cross-resistant to commercial antibiotics.

[11] = P. aeruginosa, 2,008 clinical isolates, GSK2251052 based on potential susceptible breakpoint of ≦4 μg/mL

## C[C@@H](O)[C@H]1C(=O)N2C(C(=O)O)=C(SCCN=CN)C[C@H]12 [Imipenem]
[1]
  MIC90: 4 µg/mL (≈ 13.4 µM)
Klebsiella spp. (WT)
  susceptibility category of MIC90: *0.25
Klebsiella spp. (WT); Klebsiella
  MIC90: 0.25 µg/mL (≈ 0.835 µM)
Providencia spp.(all)
  susceptibility category of MIC90: **2
Providencia spp.(all); Providencia
  MIC90: 2 µg/mL (≈ 6.68 µM)
[2]
  MIC90: 1 µg/mL (≈ 3.34 µM)
[3]
  susceptibility category of MIC90: **2
  MIC90: 2 µg/mL (≈ 6.68 µM)
E. coli (WT)
  susceptibility category of MIC90: *0.25
  MIC90: 0.25 µg/mL (≈ 0.835 µM)
Enterobacteriaceae
  MIC90: 2 µg/mL (≈ 6.68 µM)
  susceptibility category of MIC90: **2
E. coli (ESBL)
  MIC90: 0.5 µg/mL (≈ 1.67 µM)
Klebsiella spp. (KPC)
  MIC90: 64 µg/mL (≈ 214 µM)
Proteus mirabilis (WT)
  susceptibility category of MIC90: ***4
Proteus mirabilis (WT); Proteus mirabilis
  MIC90: 4 µg/mL (≈ 13.4 µM)
S. marcescens (AmpC)
  MIC90: 2 µg/mL (≈ 6.68 µM)
Proteus vulgaris (WT)
  susceptibility category of MIC90: ***4
Proteus vulgaris (WT); Proteus vulgaris
  MIC90: 4 µg/mL (≈ 13.4 µM)
[4]
  MIC90: 2 µg/mL (≈ 6.68 µM)
Klebsiella spp. (ESBL)
  MIC90: 0.5 µg/mL (≈ 1.67 µM)
[5]
  MIC90: 1 µg/mL (≈ 3.34 µM)
[6]
  MIC90: 1 µg/mL (≈ 3.34 µM)
P. aeruginosa
  % susceptible: 72.9%

## C[C@H]1COc2c(N3CCN(C)CC3)c(F)cc3c(=O)c(C(=O)O)cn1c23 [Levofloxacin]
[1]
  MIC90: > 16 µg/mL
Klebsiella spp. (WT); Klebsiella spp. (WT), 159 isolates, read-out: MIC90
  MIC90: 4 µg/mL (≈ 11.1 µM)
Providencia spp.(all); Providencia spp.(all), 68 isolates, read-out: MIC90
  MIC90: > 16 µg/mL
E. coli ATCC 25922; 4 X MIC
  Frequency of Resistance: 2 × 10^−8
E. coli ATCC 25922; 10 X MIC
  Frequency of Resistance: <5 × 10^−9
K. pneumoniae ATCC 13883; 4 X MIC
  Frequency of Resistance: 2 × 10^−7
K. pneumoniae ATCC 13883; 10 X MIC
  Frequency of Resistance: <3 × 10^−9
P. aeruginosa ATCC 27853; 4 X MIC
  Frequency of Resistance: 1 × 10^−7
P. aeruginosa ATCC 27853; 10 X MIC
  Frequency of Resistance: <1 × 10^−9
[2]
  MIC90: 16 µg/mL (≈ 44.3 µM)
[3]; Enterobacter aerogenes (WT), 199 isolates, read-out: MIC90
  MIC90: ≤ 0.5 µg/mL
E. coli (WT); E. coli (WT), 214 isolates, read-out: MIC90
  MIC90: 16 µg/mL (≈ 44.3 µM)
Enterobacteriaceae; Enterobacteriaceae, 2029 isolates, read-out: MIC90
  MIC90: 16 µg/mL (≈ 44.3 µM)
E. coli (ESBL)
  MIC90: > 16 µg/mL
Klebsiella spp. (KPC)
  MIC90: > 16 µg/mL
Proteus mirabilis (WT); Proteus mirabilis (WT), 235 isolates, read-out: MIC90
  MIC90: 8 µg/mL (≈ 22.1 µM)
S. marcescens (AmpC)
  MIC90: 4 µg/mL (≈ 11.1 µM)
Proteus vulgaris (WT); Proteus vulgaris (WT), 41 isolates, read-out: MIC90
  MIC90: ≤ 5 µg/mL
[4]
  MIC90: 16 µg/mL (≈ 44.3 µM)
Klebsiella spp. (ESBL)
  MIC90: > 16 µg/mL
[5]
  MIC90: ≤ 0.5 µg/mL
[6]
  MIC90: 8 µg/mL (≈ 22.1 µM)
P. aeruginosa; [11]
  % susceptible: 63.7%

## C[C@@H](O)[C@H]1C(=O)N2C(C(=O)O)=C(S[C@@H]3CN[C@H](C(=O)N(C)C)C3)[C@H](C)[C@H]12 [Meropenem]
E. coli ATCC 25922; 4 X MIC
  Frequency of Resistance: <4 × 10^−9
E. coli ATCC 25922; 10 X MIC
  Frequency of Resistance: <4 × 10^−9
K. pneumoniae ATCC 13883; 4 X MIC
  Frequency of Resistance: <3 × 10^−9
K. pneumoniae ATCC 13883; 10 X MIC
  Frequency of Resistance: <3 × 10^−9
P. aeruginosa ATCC 27853; 4 X MIC
  Frequency of Resistance: 7 × 10^−7
P. aeruginosa ATCC 27853; 10 X MIC
  Frequency of Resistance: <1 × 10^−9
P. aeruginosa; [11]
  % susceptible: 79.3%

## COc1cc(Cc2cnc(N)nc2N)cc(OC)c1OC [Trimethoprim]
[7]; ATCC13883, K wt., read-out: MICs
  MIC: 1 µg/mL (≈ 3.44 µM)
[7]; ATCC13883, read-out: MICs, mutant K 104
  MIC: 1 µg/mL (≈ 3.44 µM)
[7]; ATCC13883, read-out: MICs, mutant K 105
  MIC: 1 µg/mL (≈ 3.44 µM)
[7]; ATCC13883, read-out: MICs, mutant K 107
  MIC: 1 µg/mL (≈ 3.44 µM)
[7]; ATCC13883, read-out: MICs, mutant K 108
  MIC: 1 µg/mL (≈ 3.44 µM)
[7]; ATCC13883, read-out: MICs, mutant K 110
  MIC: 1 µg/mL (≈ 3.44 µM)
[8]; ATCC25922, E wt, read-out: MICs
  MIC: 0.5 µg/mL (≈ 1.72 µM)
[8]; ATCC25922, read-out: MICs, mutant E 101
  MIC: 1 µg/mL (≈ 3.44 µM)
[8]; ATCC25922, read-out: MICs, mutant E 102
  MIC: 0.5 µg/mL (≈ 1.72 µM)
[8]; ATCC25922, read-out: MICs, mutant E 107
  MIC: 1 µg/mL (≈ 3.44 µM)
[9]; ATCC27853, P wt., read-out: MICs
  MIC: > 64 µg/mL
[9]; ATCC27853, read-out: MICs, mutant P 101
  MIC: > 64 µg/mL
[9]; ATCC27853, read-out: MICs, mutant P106
  MIC: > 64 µg/mL
[9]; ATCC27853, read-out: MICs, mutant P108
  MIC: > 64 µg/mL
[10]
  cross-resistance of GSK2251052 resistant mutants: did not have any significant difference in MIC values than wild-type
